Data taken from patent US7091038B2, “Ecdysone receptor-based inducible gene expression system” (RheoGene, Inc., priority 2000, dated 2006).

Key:
GAL4CfEcRVP16 = assay: Transactivation of reporter gene through switch 1.6 in CHO cells; assay type: cell-based, Choristoneura fumiferana; settings: switch 1.6, pGAL4RELuc
Experimental: This construct was prepared so that both the GAL4 DNABD and the VP16AD were placed on the same molecule. GAL4DNABD (SEQ ID NO: 43) and VP16AD (SEQ ID NO: 49) were fused to CfEcRDEF (SEQ ID NO: 3) at N-and C-termini respectively.
(§1) The cells were harvested and reporter activity was assayed.
(§2) Cells were harvested 24–48 hr after adding ligands. […] Twenty μl of lysate was assayed.

CfVgRXR [1] = assay: Transactivation of reporter gene through switch 1.10 in CHO cells; assay type: cell-based, Choristoneura fumiferana; settings: switch 1.10, pIND(SP1)LacZ
Experimental: (§3) This example was prepared in the same way as switch 1.9 except MmRXR (SEQ ID NO: 62) was deleted.
as §1, §2

GAL4RXR + VP16CfEcR = assay: Transactivation of reporter gene through switch 1.3 in 3T3 cells
From the text: In various cellular backgrounds, including mammalian cells, insect ecdysone receptor (EcR) heterodimerizes with retinoid X receptor (RXR) and, upon binding of ligand, transactivates genes under the control of ecdysone response elements. […] The prepared receptor constructs comprise a ligand binding domain of EcR and of RXR or of USP; a DNA binding domain of GAL4 or of EcR; and an activation domain of VP16. The reporter constructs include a reporter gene, luciferase or LacZ, operably linked to a synthetic promoter construct that comprises either GAL4 or EcR/USP binding sites (response elements). Various combinations of these receptor and reporter constructs were cotransfected into CHO, NIH3T3, CV1 and 293 cells.
The same procedures described for CHO cells were followed for 3T3 cells as well with two modifications. The cells were plated when they reached 50% confluency. 125,000 or 50,000 or 25,000 cells were plated per well of 6- or 12- or 24-well plates respectively. […] The ligand treatments were performed as described in the CHO cell section above.

VP16CfEcR [2] = assay: Transactivation of reporter gene through switch 1.7 in 3T3 cells; assay type: cell-based, Choristoneura fumiferana; settings: switch 1.7, pEcRELuc
Experimental: (§4) Six ecdysone response elements (“EcRE”; SEQ ID NO: 55) from the hsp27 gene were placed upstream of the promoter and a luciferase gene (SEQ ID NO: 66). This switch most probably uses endogenous RXR.
as §1
The cells were plated when they reached 50% confluency.
as §2

VP16CfEcR [3] = assay: Transactivation of reporter gene through switch 1.7 in 293 cells; assay type: cell-based, Choristoneura fumiferana; settings: switch 1.7, pEcRELuc
Experimental: as §4, §1
(§5) The same procedures described for CHO were followed for 293 cells except that the cells were plated in biocoated plates to avoid clumping.
as §2

CfVgRXR [4] = assay: Transactivation of reporter gene through switch 1.10 in 293 cells; assay type: cell-based, Choristoneura fumiferana; settings: switch 1.10, pIND(SP1)LacZ
Experimental: as §3, §1, §5, §2

DmVgRXR + MmRXR = DmVgRXR + MmRXR (Drosophila melanogaster, UniProt P34021, E282G/G283S/G286V); assay: Transactivation of reporter gene through switch 1.8 in 293 cells; assay type: cell-based, Drosophila melanogaster; Mus musculus; design: host or cells: CHO, NIH3T3, 293 or CV1 cells; settings: switch 1.8, pIND(SP1)LacZ
Chain of DmVgRXR + MmRXR (P28700 whole entry, the tested form may be a part): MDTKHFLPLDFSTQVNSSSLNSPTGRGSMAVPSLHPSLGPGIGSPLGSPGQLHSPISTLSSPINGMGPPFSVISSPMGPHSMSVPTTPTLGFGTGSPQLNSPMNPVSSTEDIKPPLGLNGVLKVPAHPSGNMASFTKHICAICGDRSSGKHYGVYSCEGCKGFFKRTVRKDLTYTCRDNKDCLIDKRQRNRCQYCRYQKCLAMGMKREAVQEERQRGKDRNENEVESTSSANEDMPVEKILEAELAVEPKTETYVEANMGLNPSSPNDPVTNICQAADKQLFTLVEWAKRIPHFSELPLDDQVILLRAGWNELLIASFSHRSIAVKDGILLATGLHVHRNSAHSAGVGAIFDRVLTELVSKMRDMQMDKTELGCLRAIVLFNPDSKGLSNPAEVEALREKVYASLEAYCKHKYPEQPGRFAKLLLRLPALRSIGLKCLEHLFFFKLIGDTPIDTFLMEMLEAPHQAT
Chain of DmVgRXR + MmRXR (P34021 whole entry E282G/G283S/G286V, the tested form may be a part): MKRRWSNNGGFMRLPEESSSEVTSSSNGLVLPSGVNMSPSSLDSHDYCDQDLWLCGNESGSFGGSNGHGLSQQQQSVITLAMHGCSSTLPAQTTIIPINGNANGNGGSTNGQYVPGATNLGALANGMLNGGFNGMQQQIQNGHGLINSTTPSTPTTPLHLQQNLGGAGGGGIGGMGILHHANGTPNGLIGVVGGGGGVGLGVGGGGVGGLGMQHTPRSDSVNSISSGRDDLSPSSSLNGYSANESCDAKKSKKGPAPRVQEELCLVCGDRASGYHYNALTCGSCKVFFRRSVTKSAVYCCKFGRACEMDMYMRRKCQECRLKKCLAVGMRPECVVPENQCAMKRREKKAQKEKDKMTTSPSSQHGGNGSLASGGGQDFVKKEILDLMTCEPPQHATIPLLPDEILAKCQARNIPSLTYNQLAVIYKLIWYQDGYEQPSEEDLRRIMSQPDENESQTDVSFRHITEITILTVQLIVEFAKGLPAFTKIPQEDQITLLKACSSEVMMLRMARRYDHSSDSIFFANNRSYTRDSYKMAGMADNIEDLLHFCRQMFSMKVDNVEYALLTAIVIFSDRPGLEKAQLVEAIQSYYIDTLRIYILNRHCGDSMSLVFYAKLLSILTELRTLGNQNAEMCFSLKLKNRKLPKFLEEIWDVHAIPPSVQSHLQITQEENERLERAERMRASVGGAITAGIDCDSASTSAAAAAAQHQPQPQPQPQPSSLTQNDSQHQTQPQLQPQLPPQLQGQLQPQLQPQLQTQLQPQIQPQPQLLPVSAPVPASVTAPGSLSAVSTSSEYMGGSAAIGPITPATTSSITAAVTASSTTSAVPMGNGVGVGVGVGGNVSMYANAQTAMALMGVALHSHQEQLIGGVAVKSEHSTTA
From the text: This system was purchased from Invitrogen Corp., Carlsbad, California. It comprises a Drosophila melanogaster EcR (“DmEcR”) with a modified DNABD fused to VP16AD and placed under the control of a CMV promoter (SEQ ID NO: 68). Full length MmRXR (SEQ ID NO: 62) was placed under the control of the RSV promoter (SEQ ID NO: 69). The reporter, pIND(SP1)LacZ, contains five copies of a modified ecdysone response element (“EcRE”, E/GRE), three copies of an SPI enhancer, and a minimal heat shock promoter, all of which were placed upstream to the LacZ reporter gene.
as §1, §5, §2

## CCc1c(OC)cccc1C(=O)NN(C(=O)c1cc(C)cc(C)c1)C(C)(C)C [N-(2-ethyl-3-methoxybenzoyl)-N′-(3,5-dimethylbenzoyl)-N′-t-butylhydrazine]
GAL4CfEcRVP16
  Mean Fold Activation with 50 μM N-(2-ethyl-3-methoxybenzoyl)-N′-(3,5-dimethylbenzoyl)-N′-t-butylhydrazine: 9 fold
CfVgRXR [1]
  Mean Fold Activation with 50 μM N-(2-ethyl-3-methoxybenzoyl)-N′-(3,5-dimethylbenzoyl)-N′-t-butylhydrazine: 29 fold
GAL4RXR + VP16CfEcR; GAL4MmRXRDEF/VP16CfEcRCDEF (switch 1.3), 1.0 μM ligand
  Mean Fold Induction at 1.0 μM Concentration: 71 fold
GAL4RXR + VP16CfEcR; switch 1.3, pGAL4RELuc
  Mean Fold Activation Through N-(2-ethyl-3-methoxybenzoyl)-N′-(3,5-dimethylbenzoyl)-N′-t-butylhydrazine: 47 fold
VP16CfEcR [2]
  Mean Fold Activation Through N-(2-ethyl-3-methoxybenzoyl)-N′-(3,5-dimethylbenzoyl)-N′-t-butylhydrazine: 1 fold
VP16CfEcR [3]
  Mean Fold Activation Through N-(2-ethyl-3-methoxybenzoyl)-N′-(3,5-dimethylbenzoyl)-N′-t-butylhydrazine: 2 fold
CfVgRXR [4]
  Mean Fold Activation Through N-(2-ethyl-3-methoxybenzoyl)-N′-(3,5-dimethylbenzoyl)-N′-t-butylhydrazine: 3 fold
DmVgRXR + MmRXR
  Mean Fold Activation Through N-(2-ethyl-3-methoxybenzoyl)-N′-(3,5-dimethylbenzoyl)-N′-t-butylhydrazine: 21 fold
